Laboratory results: PubChem BioAssay AID1996
≈ marks a conversion by molar mass, not a printed value.

Details: buffer; pH 7.4; 200.0 µM

Structure (SMILES) | solubility kinetic
O=C(COC(=O)/C=C/c1ccc(F)cc1)NCC1CCCO1 (stereo not drawn) | > 46.1 µg/mL
Cc1cc(SCC(=O)NC2CCCCC2)nc2ccccc12 | 1.2 µg/mL (≈ 3.82 µM)
COc1cccc(OC)c1OCC(=O)Nc1ccc(S(=O)(=O)N2CCCC2)cc1 | 2.6 µg/mL (≈ 6.18 µM)
Cc1ccnc(NC(=O)c2ccc3c(c2)OCO3)c1 | > 38.4 µg/mL
COc1ccc(C(=O)OCC(=O)NCc2cccs2)c(OC)c1OC | > 54.8 µg/mL
CCc1nc(SCC(=O)Nc2cccc3ccccc23)[nH]c(=O)c1C | 1.8 µg/mL (≈ 5.09 µM)
CC(=O)Nc1ccc(S(=O)(=O)NC(C)(C#N)C2CC2)cc1 (stereo not drawn) | > 46.1 µg/mL
CC(C)Cn1c(N)c(C(=O)COC(=O)c2cc(S(=O)(=O)N3CCOCC3)ccc2Br)c(=O)n(C)c1=O | 7.9 µg/mL (≈ 13.4 µM)
O=C1/C(=C/c2ccccc2)SC(=S)N1C1CCS(=O)(=O)C1 (stereo not drawn) | 0.9 µg/mL (≈ 2.65 µM)
CSc1nc(-c2ccc(C)cc2)nc(N)c1C#N | < 0.1 µg/mL
Cc1cc(NC(=O)Cn2c(=O)oc3ccccc32)no1 | 8.6 µg/mL (≈ 31.5 µM)
Cn1cc(C=C2C(=O)OC3(CCCCC3)OC2=O)c2ccccc21 | < 0.7 µg/mL
CCN(CC)S(=O)(=O)c1cccc(C(=O)NC(C(=O)NCCc2ccccn2)C(C)C)c1 (stereo not drawn) | > 69.1 µg/mL
C(=N\N1CCN(c2ccccn2)CC1)/c1ccccn1 | > 40.1 µg/mL
O=C(CSc1ccc([N+](=O)[O-])cn1)Nc1ccc2c(c1)OCCO2 | 0.7 µg/mL (≈ 2.02 µM)
CCc1c(C#N)c(=O)[nH]c(=O)n1-c1ccccc1 | > 36.2 µg/mL
O=C(CNC(=O)c1ccc(Br)o1)NC1CCCCC1 | > 49.4 µg/mL
CCCc1cc(=O)[nH]c(SCC(=O)Nc2cccc3ccccc23)n1 | 3.4 µg/mL (≈ 9.62 µM)
COC(=O)c1c(NC(=O)C(Cl)Cl)sc2c1C(C(=O)OC)CC2 (stereo not drawn) | 8.6 µg/mL (≈ 23.5 µM)
CC(=O)N1CC2([N+](=O)[O-])CN(C(C)=O)CC([N+](=O)[O-])(C1)C2(C)C | > 49.2 µg/mL
C=CCNC(=O)COC(=O)c1c2c(nc3ccccc13)CCC2 | 40.9 µg/mL (≈ 132 µM)
COCCn1c(N)c(Sc2ccccc2)c(=O)[nH]c1=O | 41.4 µg/mL (≈ 141 µM)
CC(C)COP(=O)(OCC(C)C)C(O)c1ccc(N(C)C)cc1 (stereo not drawn) | > 51.5 µg/mL
O=C(NC(=S)N1CCN(c2ccc(O)cc2)CC1)c1cccs1 | 41.7 µg/mL (≈ 120 µM)

Structure (SMILES) | solubility kinetic
CC(=O)NC1(C(F)(F)F)C(=O)Nc2c1c(=O)[nH]c(=O)n2CC(C)C (stereo not drawn) | < 0.2 µg/mL
Cc1c(C(=O)CN2CCN(c3ccccc3)CC2)c2ccccc2n1C | 39.6 µg/mL (≈ 114 µM)
CCCCOCCCNC(=O)N[C@H](C(=O)O)C(C)CC (stereo partly drawn) | > 43.3 µg/mL
CC(C)(C)N(Cc1cc2ccccc2[nH]c1=O)C(=O)c1cccc([N+](=O)[O-])c1 | 1.4 µg/mL (≈ 3.69 µM)
O=C1Nc2ccc([N+](=O)[O-])cc2C1=Nc1cccc(CO)c1 | > 44.6 µg/mL
Cc1nn(C)cc1S(=O)(=O)N1CCCCC1C (stereo not drawn) | > 38.6 µg/mL
Clc1cccc(CN2CCN(c3ncccn3)CC2)c1Cl | 11.1 µg/mL (≈ 34.3 µM)
COc1ccc(S(N)(=O)=O)cc1C(=O)OCC1CCCCC1 | 48.1 µg/mL (≈ 147 µM)
COc1ccccc1CC(=O)NCCN1CCCCC1 | 39.3 µg/mL (≈ 142 µM)
COc1ccc(C(=O)CSc2ncnc3nc[nH]c23)cc1 | 8 µg/mL (≈ 26.6 µM)
CCNC(=O)C(C)Oc1ccc(Cl)cc1Cl (stereo not drawn) | > 39.3 µg/mL
O=C(O)C1=NN(c2ccccc2)C(=O)C1 | > 30.6 µg/mL
CCCCC(=O)Nc1cc(-c2nc3ncccc3o2)ccc1C | 4 µg/mL (≈ 12.9 µM)
Cc1ccc(NC(=O)CN(C)C(=O)COc2cccc3cccnc23)cc1 | 52.4 µg/mL (≈ 144 µM)
Cc1ccc(S(=O)(=O)Nc2ccccc2C(=O)N2CCOCC2)cc1 | > 54.1 µg/mL
COc1ccc(S(=O)(=O)N2CCNC(=O)CC2)cc1 | 35.1 µg/mL (≈ 123 µM)
N#Cc1ccccc1OCC(=O)NC1CCCCC1 | > 38.7 µg/mL
Cc1cc([N+](=O)[O-])ccc1NC(=O)CCC(=O)N1CCCCCC1 | > 50 µg/mL
CC1CCN(C(=O)NC(=O)c2ccccc2)CC1 | > 36.9 µg/mL
C=CCc1ccc(OCCCNC2CCCC2)c(OC)c1 | 35.6 µg/mL (≈ 123 µM)
COc1ccccc1CNCc1ccc(OC)c2ccccc12 | 33.7 µg/mL (≈ 110 µM)
O=C(NCCc1c[nH]c2ccccc12)c1ccc(Cl)cc1 | 5.2 µg/mL (≈ 17.4 µM)
O=C(NC(=S)N1CCN(C/C=C/c2ccccc2)CC1)c1cccnc1 | > 55 µg/mL
COc1ccc(-n2c(C)c(C)c3c(NCCCN(C)C)ncnc32)cc1 | > 53 µg/mL

Structure (SMILES) | solubility kinetic
CC(NC(=O)C12CC3CC(CC(O)(C3)C1)C2)c1ccccc1 (stereo not drawn) | > 44.9 µg/mL
Cc1ccc(S(=O)(=O)N2CCC[C@H]2C(=O)OCc2cc(=O)oc3cc(C)ccc23)cc1 | 7.3 µg/mL (≈ 16.5 µM)
CNC(=S)N1CCc2sccc2C1C (stereo not drawn) | > 34 µg/mL
CCC(=O)Nc1cccc2cccnc12 | 25 µg/mL (≈ 125 µM)
CCCCN(C(=O)CSc1ncnc2sccc12)c1c(N)n(Cc2ccccc2)c(=O)[nH]c1=O | 3.9 µg/mL (≈ 7.85 µM)
CCCOc1ccc(C(=O)NCCN2CCOCC2)cc1.Cl | > 49.3 µg/mL
Cc1ccc(Nc2cc(C)c(O)c(C)c2)cc1 | 10.5 µg/mL (≈ 46.2 µM)
CN(Cc1ccccc1)C(=O)c1ccc(S(=O)(=O)N(C)c2ccccc2)cc1 | 26.1 µg/mL (≈ 66.2 µM)
S=c1[nH]c(-c2ccccc2)cn1-c1ccccc1 | 14.9 µg/mL (≈ 59 µM)
COc1ccc(Br)cc1CN(C)CC(=O)Nc1cccc(S(=O)(=O)N2CCCC2)c1.O=C(O)C(=O)O | 12.9 µg/mL
N#Cc1cc([N+](=O)[O-])ccc1NC(=O)COC(=O)C1CCC(=O)N1 (stereo not drawn) | > 49.8 µg/mL
Cc1ccc(S(=O)(=O)/N=C(/Nc2c(C)cccc2C)c2ccccc2)cc1 | 7.3 µg/mL (≈ 19.3 µM)
Nc1cccc(S(=O)(=O)Nc2ccccc2)c1 | > 37.2 µg/mL
O=C(Nc1ccc(C(=O)N2CCCCC2)cc1)c1cccs1 | 35 µg/mL (≈ 111 µM)
Cc1nc(C)c(-c2csc(Nc3ccc(F)cc3)n2)s1 | 1.8 µg/mL (≈ 5.89 µM)
O=C(NCC(c1cccs1)N1CCc2ccccc21)c1ccccc1 (stereo not drawn) | < 0.4 µg/mL
O=C(c1cc2ccccc2o1)N1CCN(c2ncccn2)CC1 | > 46.3 µg/mL
COc1ccc(C(=O)C(C)OC(=O)CNC(=O)c2ccco2)cc1 (stereo not drawn) | > 49.7 µg/mL
CCOC(=O)N[C@H](Cc1c[nH]c2ccccc12)C(=O)NC1CC1 | > 47.3 µg/mL
CN(C)CCCN=C(NO)c1ccc(Cl)cc1Cl | 40.5 µg/mL (≈ 140 µM)
CSc1ncc(CO)n1Cc1ccccc1 | > 35.1 µg/mL
O=C(Nc1ccc2oc(=O)ccc2c1)c1ccccc1[N+](=O)[O-] | 5.7 µg/mL (≈ 18.4 µM)
Cc1ccccc1CNC(=O)Nc1ccc(Cl)cc1 | 0.3 µg/mL (≈ 1.09 µM)
Cn1c(/C=C/c2ccccc2)nc2ccccc21 | 21.9 µg/mL (≈ 93.5 µM)

Structure (SMILES) | solubility kinetic
COc1cccc(-n2cn[nH]c2=S)c1 | > 31.1 µg/mL
Cc1onc(-c2ccccc2)c1C(=O)O/N=C(\N)c1ccc([N+](=O)[O-])o1 | 11.6 µg/mL (≈ 32.6 µM)
CCn1c(=O)c2c(nc(SCC(=O)NC3CCCC3)n2C)n(C)c1=O | > 54.8 µg/mL
COc1cccc(OC)c1CN(C)C(=O)c1cnccc1C(F)(F)F | > 53.1 µg/mL
Cc1nonc1OC(C)CNCCNc1ccc([N+](=O)[O-])cc1.Cl (stereo not drawn) | > 53.7 µg/mL
O=C(Nc1cccc(NC(=O)c2cccs2)c1)c1cccnc1 | > 48.5 µg/mL
COc1ccc(CC(=S)NCCc2ccccc2)cc1 | 13 µg/mL (≈ 45.5 µM)
Cc1c(Cl)cccc1NC(=O)c1ccco1 | > 35.4 µg/mL
CC1Cc2ccccc2N1C(=O)CN1CCCCC1.Cl (stereo not drawn) | 39.3 µg/mL
CCOC(=O)COc1ccc2c(c1)c(C(C)=O)c(C)n2-c1ccccc1 | < 0.8 µg/mL
CCOc1ccc(CN(C)C(=O)c2ccc3ccccc3n2)cc1 | 34.7 µg/mL (≈ 108 µM)
O=C(NC1CCSc2ccccc21)c1ccc(F)cc1 (stereo not drawn) | 4.9 µg/mL (≈ 17.1 µM)
O=C(Nc1ccc2c(c1)OCO2)C1CC(=O)N(c2cccc(Cl)c2)C1 (stereo not drawn) | 0.9 µg/mL (≈ 2.51 µM)
CCN(CC)S(=O)(=O)c1ccc(Oc2ccccc2OC)cc1 | 10 µg/mL (≈ 29.8 µM)
O=C(NCCc1ccccc1)c1cnc(Cl)c(Cl)c1 | 11.6 µg/mL (≈ 39.3 µM)
CN(CC(=O)NCCc1ccc(S(N)(=O)=O)cc1)CC(=O)Nc1ccccc1C(F)(F)F | > 70.9 µg/mL
C1CN(CCN2CCOCC2)CCN1 | 22.7 µg/mL (≈ 114 µM)
COc1ccccc1CC(=O)Nc1sc2c(c1C(N)=O)CCCC2 | 2 µg/mL (≈ 5.81 µM)
O=C(NC1CCSc2ccccc21)c1ccccc1Br (stereo not drawn) | 8.6 µg/mL (≈ 24.7 µM)
CN(C(=O)c1ccc(F)cc1)c1ccc(OCC(=O)Nc2ccccc2C(=O)O)cc1 | > 63.4 µg/mL
CCOC(=O)N1CCN(C(=O)Nc2ccccc2)CC1 | > 41.6 µg/mL
Nc1cc[n+](CC(=O)c2ccccc2)cc1.[Br-] | > 44 µg/mL
COC(=O)c1cccc(NC(=S)N2CCN(C)CC2)c1 | 41.9 µg/mL (≈ 143 µM)
CC(CC(=O)O)CC(=O)Nc1cc([N+](=O)[O-])ccc1O (stereo not drawn) | > 42.3 µg/mL

Structure (SMILES) | solubility kinetic
Cc1cc(C(=O)N2CCCC(C(=O)c3cc(F)ccc3F)C2)c(C)o1 (stereo not drawn) | 42.5 µg/mL (≈ 122 µM)
CN1C(=O)N(C)c2cccc3cccc1c23 | 0.8 µg/mL (≈ 3.77 µM)
COc1ccc(CCNCc2ccccc2F)cc1.O=C(O)C(=O)O | 46.4 µg/mL
COc1ccc(CNc2ncnc3c2[nH]c2cc(OC)c(OC)cc23)cc1 | 1.2 µg/mL (≈ 3.29 µM)
COc1ccc(NC(=O)c2cc([N+](=O)[O-])ccc2O)cc1 | > 43.2 µg/mL
CC(C)C(OC(=O)c1nsc(Cl)c1Cl)C(=O)NCc1ccccc1 (stereo not drawn) | 10 µg/mL (≈ 25.8 µM)
COc1c(Cl)cc(C(=O)NCc2ccco2)cc1Cl | 40.2 µg/mL (≈ 134 µM)
CCc1ccccc1NC(=S)N(CCOC)C(C)c1ccco1 (stereo not drawn) | 35.1 µg/mL (≈ 106 µM)
Oc1ccc2oc3c(c2c1C=NCc1ccncc1)CCCC3 | 16.9 µg/mL (≈ 55.2 µM)
c1ccc(CN2CCN(Cc3c[nH]c4ccccc34)CC2)cc1 | > 45.8 µg/mL
COc1ccc(C(=O)COC(=O)CNC(=O)c2ccc(OC)cc2)cc1 | 17.3 µg/mL (≈ 48.4 µM)
Cc1ccccc1-n1ccnc1SCC(=O)NC1CCCC1 | > 47.3 µg/mL
Nc1ccc(S(=O)(=O)C(F)(F)F)cc1N | > 36 µg/mL
COc1ccc(CCC(=O)Nc2ccc3c(c2)OCO3)cc1OC | 35.5 µg/mL (≈ 108 µM)
Cc1ccc(C)c(NC(=S)NCCc2cnc[nH]2)c1 | 36.8 µg/mL (≈ 134 µM)
O=C(c1ccccc1)N1CCN(c2ncccn2)CC1 | > 40.2 µg/mL
COc1cc2nc(Nc3ccc(F)cc3)nc(N)c2cc1OC.Cl | > 52.6 µg/mL
Cl.NCCS | > 17 µg/mL
CC(=O)N1CCN(c2ccccc2NC(=O)c2ccc(C#N)cc2F)CC1 | 52.6 µg/mL (≈ 144 µM)
O=C1Nc2ccc(F)cc2C12OCCO2 | 31.3 µg/mL (≈ 150 µM)
Cc1ccccc1-c1nc(C#N)c(N2CCCCC2)o1 | 1.8 µg/mL (≈ 6.73 µM)
O=c1[nH]c(/C=C\c2ccc(O)c(O)c2)nc(O)c1[N+](=O)[O-] | > 43.7 µg/mL
